Source: PubChem BioAssay (NCI)
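Five concentrations, 48 hours, 96-well plates. GI50: concentration for 50% inhibition of growth. TGI is the concentration that stops growth completely.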

These compounds were tested on OVCAR-3 ovarian (assay: NCI anticancer screen, dose series, 48 h).
With COC(=O)C(=O)C(C(=O)C(=O)Nc1ccccc1C(N)=O)c1nc2ccc(Cl)cc2[nH]c1=O (centres undefined) the TGI was > 100 µM. In the case of NC(CC(=O)OCc1ccccc1)C(=O)OCc1ccccc1 (centres undefined), the TGI is reported as > 100 µM. CCC#CC[C@H]1C/C=C2/C(=O)C=C[C@@H]2C/C=C\CCCC(=O)O1 was tested, and the GI50 was 0.568 µM and the TGI was 3.31 µM. Compound CCN(CC)CCN1CC(O)=C(c2nc(-c3ccc(Cl)cc3)cs2)C1=N has a GI50 of 4.06 µM and a TGI of 20.4 µM.

What follows are compounds tested on NCI/ADR-RES ovarian (assay: NCI anticancer screen, dose series, 48 h).
Compound CN(C)CCCn1c2c(c3ccccc3c1=O)C(=O)c1ccccc1-2 has a GI50 of 1.85 µM and a TGI of 7.13 µM. CN(C)CCNC(=O)c1cccc(C(=O)Nc2ccccc2)c1[N+](=O)[O-] was tested, and the TGI was > 100 µM. In the case of NC(N)=NCCCn1c2c(c3ccccc3c1=O)C(=O)c1ccccc1-2, the GI50 is reported as 38.6 µM and the TGI is reported as > 100 µM. CC(=O)OC1Oc2ccccc2-c2oc(=O)c(-c3cc4ccc(N(C)C)cc4oc3=O)cc21 (centres undefined) showed a GI50 of 6.11 µM and a TGI of 34.7 µM. With CC1(C)C2CC(O)C1(C)CC2=O (centres undefined) the TGI was > 100 µM. COc1ccc2c(c1)C(=O)c1c-2n(CCCn2ccnc2)c(=O)c2ccccc12 showed a GI50 of 0.634 µM and a TGI of 5.92 µM. For COc1cc2oc(-c3ccc(O)cc3)cc(=O)c2c(OC)c1OC, the TGI was > 100 µM. Work on O=C(CCl)Nc1ccc(Cl)cc1 yielded a GI50 of 2.8 µM and a TGI of 8.96 µM. For O=S(=O)(/N=S(/Nc1ccccc1)C(Cl)Cl)c1ccccc1 (centres undefined), the TGI was > 100 µM. Fc1cc(F)c(COc2cc(Cn3cnc4c(Cl)nc(Cl)nc43)ccc2C23CC4CC(CC(C4)C2)C3)cc1F gave a GI50 of 18.3 µM and a TGI of 37.1 µM. COc1ccc(N2C(=O)C3c4[nH]c5ccc(C)cc5c4C4CCC(C(C)(C)C)CC4C3C2=O)cc1 (centres undefined) was tested, and the TGI was 33.2 µM. Work on CC/C=C\C[C@@H]1C/C=C2/C(=O)C=C[C@H]2C/C=C\CCCC(=O)O1 yielded a GI50 of 0.349 µM and a TGI of 18.7 µM. With NC(=S)N/N=C/c1ccc(OC(=O)COc2ccc(Cl)cc2)cn1 the GI50 was 3.17 µM and the TGI was > 100 µM. With O=C(N/N=C/c1cccc(O)c1O)c1ccccc1 the GI50 was 0.648 µM and the TGI was > 100 µM. With c1ccc(C2=NNC3c4ccccc4-c4ccccc4N3C2)cc1 (centres undefined) the TGI was > 100 µM. For COc1ccc(OC)c(/C=C/C(=O)N/N=C/c2ccc(Cl)cc2)c1, the GI50 was 0.0364 µM and the TGI was 0.215 µM. With O=C1c2ccccc2-c2c1c1ccccc1c(=O)n2Cc1ccccc1 the TGI was > 100 µM. Compound COc1ccc(C(=O)c2cc(C)c(OC)c(C)c2)c(OC)c1N(C(=O)C(Cl)Cl)C(=O)C(Cl)Cl has a GI50 of 0.032 µM. Compound CCN(CC)c1sc(N(CC)CC)c2c1SSSSS2 has a GI50 of 0.89 µM and a TGI of 2.53 µM. Work on O=C(c1cccc(O)c1O)c1cn(Cc2ccc(F)cc2)c2cccc(O)c12 yielded a GI50 of 2.59 µM and a TGI of 15.2 µM. With Nc1ncc(-c2cnn(CCO)c2)c2scc(-c3ccc(NC(=O)Nc4cccc(F)c4)cc3)c12 the GI50 was 2.5 µM and the TGI was 20.1 µM. With COc1cc(C2=NN(C(C)=O)C(c3ccc(OC(C)=O)cc3OC(C)=O)O2)c(OC(C)=O)c2ccccc12 (centres undefined) the GI50 was 0.542 µM and the TGI was > 51.8 µM. COC(=O)Nc1nc2ccc(Oc3ccc(NC(=O)Nc4ccccc4)cc3)cc2[nH]1 was tested, and the GI50 was 0.391 µM and the TGI was > 25 µM. In the case of O=C1c2c(Br)sc(Br)c2C(NC(=O)C(F)(F)F)C1O (centres undefined), the TGI is reported as 75.2 µM. With CCOC(=O)c1cc(/C(=N\O)c2cc(OC)c(OC)c(OC)c2)n2cc(C)cc(C)c12 the GI50 was 2.19 µM and the TGI was 7.92 µM. CCN(CC)CCCC(C)Nc1c(C)cnc2cc(Cl)c(C)cc12 (centres undefined) showed a GI50 of 3.43 µM and a TGI of 10.7 µM. With CC(=O)OC1CC(O)C23COC(O)C1(C)C2CC(O)C1(C)C3C(=O)C(O)C2(C)C(c3ccoc3)CC3OC321 (centres undefined) the GI50 was 71.9 µM and the TGI was > 100 µM. O=C(CP(=O)(c1ccccc1)c1ccccc1)c1cccc(C(=O)CP(=O)(c2ccccc2)c2ccccc2)c1 was tested, and the TGI was > 100 µM. CCc1[nH]c(=O)nc(N)c1-c1ccc(N2CCCCC2)c([N+](=O)[O-])c1 was tested, and the TGI was > 100 µM. COC(=O)C(=O)C(C(=O)C(=O)Nc1ccccc1C(N)=O)c1nc2ccc(Cl)cc2[nH]c1=O (centres undefined) was tested, and the TGI was > 100 µM. With NC(CC(=O)OCc1ccccc1)C(=O)OCc1ccccc1 (centres undefined) the TGI was > 100 µM. CCC#CC[C@H]1C/C=C2/C(=O)C=C[C@@H]2C/C=C\CCCC(=O)O1 gave a GI50 of 1.01 µM and a TGI of 17.2 µM. In the case of CCN(CC)CCN1CC(O)=C(c2nc(-c3ccc(Cl)cc3)cs2)C1=N, the GI50 is reported as 9.12 µM and the TGI is reported as > 100 µM. Cc1cn2c(/C=C3/C(=O)N(C)c4ccccc43)c(C)nc2s1 showed a GI50 of 3.4 µM and a TGI of 41 µM.

Each compound was assayed on MALME-3M melanoma (assay: NCI anticancer screen, dose series, 48 h).
In the case of CN(C)CCCn1c2c(c3ccccc3c1=O)C(=O)c1ccccc1-2, the GI50 is reported as 2.31 µM and the TGI is reported as 5.71 µM. CN(C)CCNC(=O)c1cccc(C(=O)Nc2ccccc2)c1[N+](=O)[O-] was tested, and the TGI was > 100 µM. With NC(N)=NCCCn1c2c(c3ccccc3c1=O)C(=O)c1ccccc1-2 the GI50 was 18.6 µM and the TGI was 45.1 µM. With CC(=O)OC1Oc2ccccc2-c2oc(=O)c(-c3cc4ccc(N(C)C)cc4oc3=O)cc21 (centres undefined) the GI50 was 3.7 µM and the TGI was 11.1 µM. For CC1(C)C2CC(O)C1(C)CC2=O (centres undefined), the TGI was > 100 µM. COc1ccc2c(c1)C(=O)c1c-2n(CCCn2ccnc2)c(=O)c2ccccc12 gave a GI50 of 1.25 µM and a TGI of 6.44 µM. For COc1cc2oc(-c3ccc(O)cc3)cc(=O)c2c(OC)c1OC, the TGI was > 100 µM. Work on O=C(CCl)Nc1ccc(Cl)cc1 yielded a GI50 of 3.33 µM and a TGI of 13.2 µM. In the case of O=S(=O)(/N=S(/Nc1ccccc1)C(Cl)Cl)c1ccccc1 (centres undefined), the TGI is reported as > 100 µM. In the case of Fc1cc(F)c(COc2cc(Cn3cnc4c(Cl)nc(Cl)nc43)ccc2C23CC4CC(CC(C4)C2)C3)cc1F, the GI50 is reported as 1.92 µM and the TGI is reported as 4.75 µM. Compound CC/C=C\C[C@@H]1C/C=C2/C(=O)C=C[C@H]2C/C=C\CCCC(=O)O1 has a GI50 of 1.18 µM and a TGI of 4.65 µM. For NC(=S)N/N=C/c1ccc(OC(=O)COc2ccc(Cl)cc2)cn1, the GI50 was 12.2 µM and the TGI was > 100 µM. O=C(N/N=C/c1cccc(O)c1O)c1ccccc1 was tested, and the GI50 was 1.35 µM and the TGI was 35.8 µM. c1ccc(C2=NNC3c4ccccc4-c4ccccc4N3C2)cc1 (centres undefined) was tested, and the TGI was 83.1 µM. With O=C1c2ccccc2-c2c1c1ccccc1c(=O)n2Cc1ccccc1 the TGI was > 100 µM. With COc1ccc(C(=O)c2cc(C)c(OC)c(C)c2)c(OC)c1N(C(=O)C(Cl)Cl)C(=O)C(Cl)Cl the GI50 was 0.129 µM and the TGI was > 100 µM. With CCN(CC)c1sc(N(CC)CC)c2c1SSSSS2 the GI50 was 1.59 µM and the TGI was 3.45 µM. In the case of O=C(c1cccc(O)c1O)c1cn(Cc2ccc(F)cc2)c2cccc(O)c12, the GI50 is reported as 4.83 µM and the TGI is reported as 22 µM. Nc1ncc(-c2cnn(CCO)c2)c2scc(-c3ccc(NC(=O)Nc4cccc(F)c4)cc3)c12 gave a GI50 of 0.132 µM and a TGI of 1.38 µM. COc1cc(C2=NN(C(C)=O)C(c3ccc(OC(C)=O)cc3OC(C)=O)O2)c(OC(C)=O)c2ccccc12 (centres undefined) gave a GI50 of 1.83 µM and a TGI of 20.5 µM. With COC(=O)Nc1nc2ccc(Oc3ccc(NC(=O)Nc4ccccc4)cc3)cc2[nH]1 the GI50 was 0.14 µM and the TGI was > 11.4 µM. O=C1c2c(Br)sc(Br)c2C(NC(=O)C(F)(F)F)C1O (centres undefined) showed a TGI of 43.7 µM. In the case of CCOC(=O)c1cc(/C(=N\O)c2cc(OC)c(OC)c(OC)c2)n2cc(C)cc(C)c12, the GI50 is reported as 1.44 µM and the TGI is reported as 3.98 µM. CCN(CC)CCCC(C)Nc1c(C)cnc2cc(Cl)c(C)cc12 (centres undefined) showed a GI50 of 14.9 µM and a TGI of 29.7 µM. Compound CCCCCCCC(CC(=O)NC(CO)C(=O)NC(CO)CC(C)C)OC(=O)CC(CCCCCCC)OC(=O)CC(CCCCCCC)OC1OC(C)C(O)C(OC2OC(C)C(O)C(OC(C)=O)C2O)C1O (centres undefined) has a TGI of 33.4 µM. Work on CCC#CC[C@H]1C/C=C2/C(=O)C=C[C@@H]2C/C=C\CCCC(=O)O1 yielded a GI50 of 1.13 µM and a TGI of 3.24 µM. CCN(CC)CCN1CC(O)=C(c2nc(-c3ccc(Cl)cc3)cs2)C1=N gave a GI50 of 1.69 µM and a TGI of 3.22 µM. With Cc1cn2c(/C=C3/C(=O)N(C)c4ccccc43)c(C)nc2s1 the GI50 was 54.3 µM and the TGI was > 100 µM.
